Measured values published in ChEMBL document CHEMBL1133374, “Chemical synthesis and cytotoxicity of some azinomycin analogues devoid of the 1-azabicyclo[3.1.0]hexane subunit” (Bioorg Med Chem Lett, 2000).

Experiments:
Type in all cases: functional, cell-based
A2780cisR = assay: The compound was evaluated for the cytotoxicity against human A2780cisR (ovarian) tumor cell lines.
A2780 = assay: The compound was evaluated for the cytotoxicity against human A2780 (ovarian) tumor cell lines.
SK-OV-3 = assay: The compound was evaluated for the cytotoxicity against human SKOV-3 (ovarian) tumor cell lines.
CH1 = assay: The compound was evaluated for the cytotoxicity against human CH1 (ovarian) tumor cell lines.
HT-29 = assay: The compound was evaluated for the cytotoxicity against human HT-29 (colon) tumor cell lines.

Compound | IC50 (A2780cisR; Homo sapiens, A2780cisR) [nM] | IC50 (A2780) [nM] | IC50 (SK-OV-3) [nM] | IC50 (CH1) [nM] | IC50 (HT-29; Homo sapiens, HT-29) [nM] | IC50 (A2780cisR; a2780cisr) [nM] | IC50 (HT-29; ht-29) [nM]
CCOC(=O)CNC(=O)[C@@H](OC(=O)c1cc(OC)cc2c(C)cccc12)[C@]1(C)CO1 | 830 | 340 | 7300 | 260 | 2250 |  | 
CCOc1cc(C(=O)O[C@H](C(N)=O)[C@]2(C)CO2)c2cccc(C)c2c1 | 3500 | 1800 | 12000 | 1400 | 4300 |  | 
COc1cc(C(=O)O[C@H](C(N)=O)[C@@]2(C)CO2)c2cccc(C)c2c1 | 155 | 58 | 2300 | 62 | 610 |  | 
C[C@@]1([C@H](OC(=O)c2cccc3ccccc23)C(N)=O)CO1 | 1100 | 440 | 5100 | 550 | 2150 |  | 
C[C@@]1([C@H](OC(=O)c2ccc3ccccc3c2)C(N)=O)CO1 | 1350 | 390 | 13000 | 170 | 2600 |  | 
C[C@@]1([C@H](OC(=O)c2ccccc2)C(N)=O)CO1 | > 25000 | 20500 | > 25000 | > 25000 | > 25000 |  | 
C[C@@]1([C@H](OC(=O)c2cnc3ccccc3n2)C(N)=O)CO1 | > 25000 | > 25000 | > 25000 | > 25000 | > 25000 |  | 
COc1cc(C(=O)O[C@H](C(N)=O)[C@]2(C)CO2)c2cccc(C)c2c1 | 76 | < 50 | 1250 | < 50 | 330 |  | 
CC1([C@H](OC(=O)c2cccc3ccccc23)C(N)=O)CC1 | > 25000 | > 25000 | > 25000 | > 25000 | > 25000 |  | 
CCOC(=O)[C@@H](NC(=O)[C@@H](OC(=O)c1ccc(C)c2cc(OC)ccc12)[C@]1(C)CO1)C(C)C | 560 | 350 | 2950 | 315 | 2250 |  | 
CO[C@@]12[C@H](COC(N)=O)C3=C(C(=O)C(C)=C(N)C3=O)N1C[C@@H]1N[C@@H]12 [MITOMYCIN] | 60 | 50 | 200 | 40 | 40 |  | 
CISPLATIN |  |  |  |  |  | 3000 | 1700
